Reference: paper PMC10296720, “A Truncated 14-Amino-Acid Myelin Protein-Zero-Targeting Peptide for Fluorescence-Guided Nerve-Preserving Surgery” (Biomolecules, 2023)
Values after ≈ are worked out from the molar mass of the structure shown. Where two headings read alike, the source gives them in different places. Where a SMILES comes first, the peptide text is derived from it. The star is where a group is joined. X1 = CC1(C)C(/C=C/C=C/C=C2/N(CCCCS(=O)(=O)O)c3ccc(S(=O)(=O)O)cc3C2(C)C)=[N+](CCCCCC(=O)NCCN2C(=O)CC(*)C2=O)c2ccc(S(=O)(=O)[O-])cc21; X2 = CC1(C)C(=CC=CC=CC2=[N+](CCCCS(=O)(=O)[O-])c3ccc(S(=O)(=O)O)cc3C2(C)C)N(CCCCCC(=O)NCCN2C(=O)CC(*)C2=O)c2ccc(S(=O)(=O)O)cc21

Legend:
Serum binding = assay type: in vitro ADME; conditions: as previously described (refs 27, 31, 36)
Procedure: (§1) Determination of the chemical and photophysical properties (LogP, solubility, serum binding, net charge, and brightness) was performed as previously described.

Solubility = assay type: physicochemical; conditions: as previously described (refs 27, 31, 36)
Procedure: as §1

LogP = assay type: physicochemical; conditions: as previously described (refs 27, 31, 36)
Procedure: as §1

P0 = target: T1, P0 (Rattus norvegicus, UniProt P06907); experiment: P0 affinity (KD) via flow cytometry saturation binding; conditions: saturation binding on P0-expressing RT4 D6P2T Schwannoma cells, flow cytometry (APC-A), 0–2000 nM, triplicate, repeated at least two times per tracer
T1 construct: performed using P0-expressing RT4 D6P2T cells; host or cells: RT4 D6P2T myelinating Schwannoma cells
T1 sequence (P06907 30-248): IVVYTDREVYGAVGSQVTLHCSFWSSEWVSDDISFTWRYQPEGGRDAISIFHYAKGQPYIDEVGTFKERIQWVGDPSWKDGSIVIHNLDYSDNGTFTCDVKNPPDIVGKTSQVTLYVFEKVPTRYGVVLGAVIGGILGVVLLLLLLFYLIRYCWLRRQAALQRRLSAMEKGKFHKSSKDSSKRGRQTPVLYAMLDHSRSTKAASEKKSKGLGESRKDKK
Procedure: The mean fluorescence intensity values per sample were measured using an LSRII flow cytometer (BD Biosciences, Franklin Lakes, NJ, USA) with APC-A settings (635 nm laser and 750 nm long-pass filter) for a Cy5 dye. […] For the affinity assessment, fluorescence was measured using a FACSCanto II flow cytometry device (BD Biosciences, Franklin Lakes, NJ, USA) in the APC-A channel, and the accompanying FlowJo^TM v5 software (BD Biosciences, Franklin Lakes, NJ, USA) was used for further analysis.
Saturation binding experiments were performed for each of the fluorescent peptides in a concentration range of 0–2000 nM. All measurements were performed in triplicate, and experiments were repeated at least two times per tracer. The fluorescence was measured using a FACSCanto II flow cytometry device (BD Biosciences) in the APC-A channel, and the accompanying FlowJo software was used for further analysis. KD assessment was performed using the normalized geometric means, which were fitted with equations in GraphPad Prism 5 software.
A statistical evaluation to compare the affinity (KD) was performed using unpaired Student’s t-test. Values of p < 0.05 were considered significant.

Brightness (in HSA) = assay type: physicochemical, human
Procedure: as §1

SMILES | fraction unbound (Serum binding) | Solubility (Solubility) [µM] | LogP (LogP; read-out: LogP) | Kd (P0) [nM] | Solubility (Solubility; listed as Cy5P0_112–125) | LogP (LogP) | increase in brightness versus lead Cy5-P0_101–125 (Brightness (in HSA); in HSA) | Brightness (in HSA) (Brightness (in HSA); in human serum albumin)
CC[C@H](C)[C@H](NC(=O)[C@H](CC(=O)O)NC(=O)[C@@H]1CCCN1C(=O)[C@@H]1CCCN1C(=O)[C@H](CC(N)=O)NC(=O)[C@H](CCCCN)NC(C)=O)C(=O)N[C@@H](CSC1CC(=O)N(CCNC(=O)CCCCC[N+]2=C(/C=C/C=C/C=C3/N(CCCCS(=O)(=O)O)c4ccc(S(=O)(=O)O)cc4C3(C)C)C(C)(C)c3cc(S(=O)(=O)[O-])ccc32)C1=O)C(N)=O (some centres unmarked) [Cy5-P0_101–106] (Ac-KNPPDIC(X1)-NH2) | 0.53 | >400 | -0.95 ± 0.05 |  |  |  |  | 
CC[C@H](C)[C@H](NC(=O)[C@H](CC(=O)O)NC(=O)[C@@H]1CCCN1C(=O)[C@@H]1CCCN1C(=O)[C@H](CC(N)=O)NC(=O)[C@H](CCCCN)NC(C)=O)C(=O)N[C@H](C(=O)NCC(=O)N[C@@H](CCCCN)C(=O)N[C@H](C(=O)N[C@@H](CO)C(=O)N[C@@H](CCC(N)=O)C(=O)N[C@H](C(=O)N[C@H](C(=O)N[C@@H](CC(C)C)C(=O)N[C@@H](CSC1CC(=O)N(CCNC(=O)CCCCC[N+]2=C(/C=C/C=C/C=C3/N(CCCCS(=O)(=O)O)c4ccc(S(=O)(=O)O)cc4C3(C)C)C(C)(C)c3cc(S(=O)(=O)[O-])ccc32)C1=O)C(N)=O)[C@@H](C)O)C(C)C)[C@@H](C)O)C(C)C (some centres unmarked) [Cy5-P0_101–115] (Ac-KNPPDIVGKTSQVTLC(X1)-NH2) | 0.4 | >400 | -0.8 ± 0.16 | > 1000 |  |  |  | 
CC[C@H](C)[C@H](NC(=O)[C@H](CC(=O)O)NC(=O)[C@@H]1CCCN1C(=O)[C@@H]1CCCN1C(=O)[C@H](CC(N)=O)NC(=O)[C@H](CCCCN)NC(C)=O)C(=O)N[C@H](C(=O)NCC(=O)N[C@@H](CCCCN)C(=O)N[C@H](C(=O)N[C@@H](CO)C(=O)N[C@@H](CCC(N)=O)C(=O)N[C@H](C(=O)N[C@H](C(=O)N[C@@H](CC(C)C)C(=O)N[C@@H](Cc1ccc(O)cc1)C(=O)N[C@H](C(=O)N[C@@H](Cc1ccccc1)C(=O)N[C@@H](CCC(=O)O)C(=O)N[C@@H](CCCCN)C(=O)N[C@@H](CSC1CC(=O)N(CCNC(=O)CCCCCN2C(=CC=CC=CC3=[N+](CCCCS(=O)(=O)[O-])c4ccc(S(=O)(=O)O)cc4C3(C)C)C(C)(C)c3cc(S(=O)(=O)O)ccc32)C1=O)C(N)=O)C(C)C)[C@@H](C)O)C(C)C)[C@@H](C)O)C(C)C (some centres unmarked) [Cy5-P0_101–120] (Ac-KNPPDIVGKTSQVTLYVFEKC(X2)-NH2; N-terminus and C-terminus assumed) | 0.34 | 15 (≈ 49.4 µg/mL) | -0.99 ± 0.1 |  |  |  | twofold increase in brightness | 137,940
CC[C@H](C)[C@H](NC(=O)[C@H](CC(=O)O)NC(=O)[C@@H]1CCCN1C(=O)[C@@H]1CCCN1C(=O)[C@H](CC(N)=O)NC(=O)[C@H](CCCCN)NC(C)=O)C(=O)N[C@H](C(=O)NCC(=O)N[C@@H](CCCCN)C(=O)N[C@H](C(=O)N[C@@H](CSC1CC(=O)N(CCNC(=O)CCCCC[N+]2=C(/C=C/C=C/C=C3/N(CCCCS(=O)(=O)O)c4ccc(S(=O)(=O)O)cc4C3(C)C)C(C)(C)c3cc(S(=O)(=O)[O-])ccc32)C1=O)C(N)=O)[C@@H](C)O)C(C)C (some centres unmarked) [Cy5-P0_101–110] (Ac-KNPPDIVGKTC(X1)-NH2) | 0.45 | >400 | -0.73 ± 0.12 | > 1000 |  |  |  | 

More lines, main results first:

fraction unbound (Serum binding) | Solubility (Solubility) [µM] | LogP (LogP; read-out: LogP) | Kd (P0) [nM] | Solubility (Solubility; listed as Cy5P0_112–125) | LogP (LogP) | SMILES | increase in brightness versus lead Cy5-P0_101–125 (Brightness (in HSA); in HSA) | Brightness (in HSA) (Brightness (in HSA); in human serum albumin)
 | 71 (≈ 197 µg/mL) |  | 69 | relatively low solubility | −1.08 + 0.03 | CC(=O)N[C@@H](CCC(N)=O)C(=O)N[C@H](C(=O)N[C@H](C(=O)N[C@@H](CC(C)C)C(=O)N[C@@H](Cc1ccc(O)cc1)C(=O)N[C@H](C(=O)N[C@@H](Cc1ccccc1)C(=O)N[C@@H](CCC(=O)O)C(=O)N[C@@H](CCCCN)C(=O)N[C@H](C(=O)N1CCC[C@H]1C(=O)N[C@H](C(=O)N[C@@H](CCCNC(=N)N)C(=O)N[C@@H](Cc1ccc(O)cc1)C(=O)N[C@@H](CSC1CC(=O)N(CCNC(=O)CCCCC[N+]2=C(/C=C/C=C/C=C3/N(CCCCS(=O)(=O)O)c4ccc(S(=O)(=O)O)cc4C3(C)C)C(C)(C)c3cc(S(=O)(=O)[O-])ccc32)C1=O)C(N)=O)[C@@H](C)O)C(C)C)C(C)C)[C@@H](C)O)C(C)C (some centres unmarked) [Cy5-P0_112–125] (Ac-QVTLYVFEKVPTRYC(X1)-NH2) |  | 
 | 150 (≈ 350 µg/mL) |  | 147 ± 80 |  | −1.58 + 0.03 | CC(=O)N[C@@H](Cc1ccc(O)cc1)C(=O)N[C@H](C(=O)N[C@@H](Cc1ccccc1)C(=O)N[C@@H](CCC(=O)O)C(=O)N[C@@H](CCCCN)C(=O)N[C@H](C(=O)N1CCC[C@H]1C(=O)N[C@H](C(=O)N[C@@H](CCCNC(=N)N)C(=O)N[C@@H](Cc1ccc(O)cc1)C(=O)N[C@@H](CSC1CC(=O)N(CCNC(=O)CCCCC[N+]2=C(/C=C/C=C/C=C3/N(CCCCS(=O)(=O)O)c4ccc(S(=O)(=O)O)cc4C3(C)C)C(C)(C)c3cc(S(=O)(=O)[O-])ccc32)C1=O)C(N)=O)[C@@H](C)O)C(C)C)C(C)C (some centres unmarked) [Cy5-P0_116–125] (Ac-YVFEKVPTRYC(X1)-NH2) |  | 
0.31 |  |  | 83 |  | −1.34 + 0.03 | CC(=O)NCC(=O)N[C@@H](CCCCN)C(=O)N[C@H](C(=O)N[C@@H](CO)C(=O)N[C@@H](CCC(N)=O)C(=O)N[C@H](C(=O)N[C@H](C(=O)N[C@@H](CC(C)C)C(=O)N[C@@H](Cc1ccc(O)cc1)C(=O)N[C@H](C(=O)N[C@@H](Cc1ccccc1)C(=O)N[C@@H](CCC(=O)O)C(=O)N[C@@H](CCCCN)C(=O)N[C@H](C(=O)N1CCC[C@H]1C(=O)N[C@H](C(=O)N[C@@H](CCCNC(=N)N)C(=O)N[C@@H](Cc1ccc(O)cc1)C(=O)N[C@@H](CSC1CC(=O)N(CCNC(=O)CCCCC[N+]2=C(/C=C/C=C/C=C3/N(CCCCS(=O)(=O)O)c4ccc(S(=O)(=O)O)cc4C3(C)C)C(C)(C)c3cc(S(=O)(=O)[O-])ccc32)C1=O)C(N)=O)[C@@H](C)O)C(C)C)C(C)C)[C@@H](C)O)C(C)C)[C@@H](C)O (some centres unmarked) [Cy5-P0_108–125] (Ac-GKTSQVTLYVFEKVPTRYC(X1)-NH2) |  | 
0.29 | 150 (≈ 269 µg/mL) |  |  |  | −1.59 + 0.01 | CC(=O)N[C@@H](CCCCN)C(=O)N[C@H](C(=O)N1CCC[C@H]1C(=O)N[C@H](C(=O)N[C@@H](CCCNC(=N)N)C(=O)N[C@@H](Cc1ccc(O)cc1)C(=O)N[C@@H](CSC1CC(=O)N(CCNC(=O)CCCCC[N+]2=C(/C=C/C=C/C=C3/N(CCCCS(=O)(=O)O)c4ccc(S(=O)(=O)O)cc4C3(C)C)C(C)(C)c3cc(S(=O)(=O)[O-])ccc32)C1=O)C(N)=O)[C@@H](C)O)C(C)C (some centres unmarked) [Cy5-P0_120–125] (Ac-KVPTRYC(X1)-NH2) |  | 
